The record followed here is patent US12637414B2, “Arylamides and methods of use thereof” (Genzyme Corporation, priority 2019, dated 2026).

Each structure is given as a SMILES string. pEC50: −log10 of the molar value.

The test has as its target T1, human Cystic Fibrosis Transmembrane Conductance Regulator (CFTR) harboring the ΔF508 mutation (Homo sapiens, UniProt P13569, DEL508-508).
T1 construct: expressed in transfected cells; host or cells: H441 carcinoma line (G418 selection)
The test is described as follows: H441 cell Emax and EC50: HRP-tagged ΔF508-CFTR cell surface luminescence assay. It counts as cell-based. The settings on record: H441 cells expressing ΔF508-CFTR-HRP, 27° C., two nights; for pEC50: 15-point dose-response, top 24.5 μM; for Emax: NCI-H441, % of maximum VX809 signal. From the text: Two cell lines were used, the H441 carcinoma line and the CFHBE41o-(41o-) human bronchial epithelial line. Both cell lines expressed human Cystic Fibrosis Transmembrane Conductance Regulator (CFTR) harboring the ΔF508 mutation and with an in-frame fusion in CFTR extracellular loop 4 of Horse Radish Peroxidase (HRP) under control of the CMV promoter. In the presence of the HRP tag, ΔF508-CFTR transported to the cell surface was detectable upon addition of an HRP substrate (Luminata Forte). Both cell types were cultivated at 37° C. with CO2.
For both cell types, the medium was changed every other day unless the culture was at low % confluence. Cells were used for the assays at ˜75% confluence.
To a polypropylene (PP) 384-well plate, 15 μls DMSO was added to all wells in columns 1-22 and 24 (low Control). 15 μls of 260 μM VX809 (Lumacaftor), Selleckchem S1565, was added to column 23 wells (high Control). 15 μls of 10 mM test compound or VX809 (control) were added to wells of row A. Serial dilutions of Row A compound were performed 2×15 μls in rows A through O (15-point).
A PP, 384-well plate containing the appropriate cell culture medium was prepared for each assay plate with 100 μls per well. For the doxycycline-induced 41o-cells, doxycycline for both the assay plate and the medium dilution plate was added at 0.0005 mg/ml to the medium.
Both cell lines were plated for the assay at 30 uls per 384-well at 3.4×10^e5 cells per ml (˜10K cells/well). H441 cells were plated on opaque, white, Corning plate 3704. 41o-cells were plated on collagen-coated opaque, white, Corning plate 356665. For 41o-cells, doxycycline was added to the medium.
Using FX (Beckman) protocol, 10 uls diluted compound or medium was added per well to the Assay Plate as: 2 μls DMSO Dilution plate well is diluted in 100 uls of the Medium Dilution Plate well, mixed, and 10 uls is transferred to the Assay Plate.
The final assay dilution series is 24.5, 12.3, 6.1, 3.1, 1.5, 0.8, 0.4, 0.2, 0.1, 0.05, 0.02, 0.01, 0.006, 0.003, 0.001 and 0 μM. The 41o-assay plates were incubated at 37° C. w/CO2, the H441 assay plates were incubated at 27° C. w/CO2, each overnight for two nights.
After being brought to room temperature, the assay plate liquid was removed. 30 μls of Luminata Forte (Millipore ELLUF0100) was added per well and incubated at room temperature for 10 min. The plates were then read on a Topcount, protocol LumiMatti (CPS, luminescence). The data was analyzed for % of maximum, maximum VX809 signal, and EC50 using Pearl and SPEED tools.

T1 sequence (P13569 with tags, fused parts or gaps DEL508-508): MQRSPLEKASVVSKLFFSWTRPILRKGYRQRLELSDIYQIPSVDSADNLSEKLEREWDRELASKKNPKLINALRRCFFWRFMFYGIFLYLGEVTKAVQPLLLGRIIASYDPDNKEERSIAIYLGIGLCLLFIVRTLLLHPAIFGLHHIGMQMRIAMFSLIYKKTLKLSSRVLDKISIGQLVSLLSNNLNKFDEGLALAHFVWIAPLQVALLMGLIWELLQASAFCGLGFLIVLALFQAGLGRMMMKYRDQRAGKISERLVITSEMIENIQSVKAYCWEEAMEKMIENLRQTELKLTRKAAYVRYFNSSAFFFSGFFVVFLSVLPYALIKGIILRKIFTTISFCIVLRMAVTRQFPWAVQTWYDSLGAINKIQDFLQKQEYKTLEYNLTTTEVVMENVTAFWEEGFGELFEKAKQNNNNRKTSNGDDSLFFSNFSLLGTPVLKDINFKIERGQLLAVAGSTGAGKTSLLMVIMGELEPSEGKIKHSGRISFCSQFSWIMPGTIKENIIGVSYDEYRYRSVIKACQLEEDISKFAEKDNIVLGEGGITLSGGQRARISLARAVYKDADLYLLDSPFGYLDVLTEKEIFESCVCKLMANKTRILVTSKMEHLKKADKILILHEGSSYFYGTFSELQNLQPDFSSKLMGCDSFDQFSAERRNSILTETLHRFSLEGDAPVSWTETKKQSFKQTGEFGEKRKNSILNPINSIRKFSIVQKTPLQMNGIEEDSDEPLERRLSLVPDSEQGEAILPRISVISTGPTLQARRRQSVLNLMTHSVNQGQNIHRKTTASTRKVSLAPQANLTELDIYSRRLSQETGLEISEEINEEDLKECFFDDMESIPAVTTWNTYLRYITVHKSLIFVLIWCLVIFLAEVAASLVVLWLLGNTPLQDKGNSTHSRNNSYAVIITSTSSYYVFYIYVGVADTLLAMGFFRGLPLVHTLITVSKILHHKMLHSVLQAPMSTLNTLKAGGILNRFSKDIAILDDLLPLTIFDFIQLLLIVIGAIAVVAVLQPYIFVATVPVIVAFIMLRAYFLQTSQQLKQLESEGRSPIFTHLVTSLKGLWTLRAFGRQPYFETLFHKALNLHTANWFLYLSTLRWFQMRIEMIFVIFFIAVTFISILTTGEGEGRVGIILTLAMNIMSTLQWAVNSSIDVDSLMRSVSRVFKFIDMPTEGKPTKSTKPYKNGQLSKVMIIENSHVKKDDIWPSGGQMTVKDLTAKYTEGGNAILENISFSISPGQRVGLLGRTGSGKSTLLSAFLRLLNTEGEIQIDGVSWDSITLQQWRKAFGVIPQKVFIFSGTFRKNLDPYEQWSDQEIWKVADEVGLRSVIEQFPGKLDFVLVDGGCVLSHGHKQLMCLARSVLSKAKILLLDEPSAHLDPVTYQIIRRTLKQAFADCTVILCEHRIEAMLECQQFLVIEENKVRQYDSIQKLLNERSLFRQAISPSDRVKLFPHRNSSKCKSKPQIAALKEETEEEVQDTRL

As to `O=C(N[C@H](C(=O)O)C12CC3CC(CC(C3)C1)C2)c1ccc2ccccc2c1OCc1ccc(S(F)(F)(F)(F)F)cc1` [compound 47], the negative logarithm of the EC50 (pEC50) (commonly the EC50 on a negative log10 scale, so that one unit is a factor of ten) is 6.35 and the Emax (commonly the maximal effect, on the per cent scale that the assay sets) was 148%.

For `O=C(N[C@H](C(=O)O)C12CC3CC(CC(C3)C1)C2)c1ccc2ccccc2c1OC[C@H]1CC[C@H](C(F)(F)F)CC1` [compound 48], the pEC50 was 6.14 and the Emax is 124%.

With `O=C(N[C@H](C(=O)O)C12CC3CC(CC(O)(C3)C1)C2)c1ccc2cc(F)ccc2c1OCc1ccc(S(F)(F)(F)(F)F)cc1` [compound 50], the pEC50 was 5.66 and the maximal effect (Emax) worked out at 76.4%.

Consider `O=C(N[C@H](C(=O)O)C12CC3CC(CC(C3)C1)C2)c1ccc2cccnc2c1OCc1nc2ccccc2s1` [compound 51], for which the negative-log EC50 (pEC50) is 5.80 and the Emax was 206%.

The molecule `O=C(N[C@H](C(=O)O)C12CC3CC(CC(C3)C1)C2)c1ccc2ccccc2c1OCC1CCCCC1` [compound 52] had a pEC50 of 6.04 and an Emax of 171%.

With `O=C(N[C@H](C(=O)O)C12CC3CC(CC(O)(C3)C1)C2)c1ccc2ccccc2c1OCC1CCC(F)(F)CC1` [compound 53], the negative-log EC50 (pEC50) was 5.14 and the Emax stood at 74.1%.

As to `O=C(N[C@H](C(=O)O)C12CC3CC(CC(Br)(C3)C1)C2)c1ccc2ccccc2c1OCc1ccc(C(F)(F)F)cc1` [compound 54], the negative logarithm of the EC50 (pEC50) is 6.82 and the Emax was determined as 147%.

Turning to `O=C(N[C@H](C(=O)O)C12CC3CC(CC(C3)C1)C2)c1ccc2cc(F)ccc2c1OCc1ccc(Cl)c(Cl)c1` [compound 55], the pEC50 is 6.71 and the Emax was 150%.

Consider `O=C(N[C@H](C(=O)O)C12CC3CC(CC(C3)C1)C2)c1ccc2cc(F)ccc2c1OCc1ccc(S(F)(F)(F)(F)F)cc1` [compound 56], for which the negative logarithm of the EC50 (pEC50) was 6.63 and the Emax is 89.7%.

Molecule `O=C(N[C@H](C(=O)O)C12CC3CC(CC(C3)C1)C2)c1ccc2cc(F)ccc2c1OCc1ccc(SC(F)(F)F)cc1` [compound 57] had a pEC50 of 6.53 and an Emax of 92.5%.

`CS(=O)(=O)c1ccc(COc2c(C(=O)N[C@H](C(=O)O)C34CC5CC(CC(C5)C3)C4)ccc3ccccc23)cc1` [compound 58]: the pEC50 was 4.80 and the maximal response (Emax) came to 30.1%.

`CC12CC3(C)CC(C)(C1)CC([C@H](NC(=O)c1ccc4ccccc4c1OCc1ccc(C(F)(F)F)cc1)C(=O)O)(C2)C3` [compound 59] gave a pEC50 of 6.54 and an Emax of 257%.

On to `O=C(N[C@H](C(=O)O)C12CC3CC(CC(O)(C3)C1)C2)c1ccc2cccnc2c1OCC1CCC(F)(F)CC1` [compound 60], for which the pEC50 is 4.93 and the Emax turned out to be 73.1%.

On to `O=C(N[C@H](C(=O)O)C12CC3CC(CC(C3)C1)C2)c1ccc2ccccc2c1OCc1ccc(S(=O)(=O)C(F)(F)F)cc1` [compound 61], for which the pEC50 was 6.35 and the Emax was 100%.

Molecule `CC12CC3(C)CC(C)(C1)CC([C@H](NC(=O)c1ccc4cccnc4c1OCc1ccc(C(F)(F)F)cc1)C(=O)O)(C2)C3` [compound 62] had a pEC50 of 6.61 and an Emax of 217%.

For `C=COc1ccc2c(OCc3ccc(C(F)(F)F)cc3)c(C(=O)N[C@H](C(=O)O)C34CC5CC(CC(C5)C3)C4)ccc2c1` [compound 63], the negative-log EC50 (pEC50) is 6.64 and the maximal response (Emax) was found to be 54.9%.

`O=C(N[C@H](C(=O)O)C12CC3CC(CC(C3)C1)C2)c1ccc2ccccc2c1OCc1nc2ccccc2s1` [compound 65] showed a pEC50 of 5.88 and an Emax of 198%.

Consider `CC(=O)COC12CC3CC(C1)CC([C@H](NC(=O)c1ccc4cc(F)ccc4c1OCc1ccc(C(F)(F)F)cc1)C(=O)O)(C3)C2` [compound 66], for which the negative-log EC50 (pEC50) was 5.86 and the maximum response (Emax) is 84.2%.

On to `O=C(N[C@H](C(=O)O)C12CC3CC(CC(Br)(C3)C1)C2)c1ccc2cccnc2c1OCc1ccc(C(F)(F)F)cc1` [compound 67], for which the pEC50 is 6.06 and the maximal effect (Emax) turned out to be 134%.
